Here are results for one molecule from patent US7795310B2, “Methods and reagents for the treatment of metabolic disorders” (CombinatoRx, Inc., priority 2004, dated 2010).

This assay deals with 3T3-L1 adipocytes. As to the kind of experiment: Insulin-stimulated 14C-glucose uptake in differentiated adipocytes (Example 1). It counts as cell-based, mouse. As for the experimental part: Differentiated mouse adipocytes were employed to identify combinations of agents that have the ability to increase glucose uptake upon insulin stimulation, as detected by scintillation counting of radiolabelled glucose (using, for example, the Perkin Elmer 1450 Microbeta JET reader). These assays were conducted as follows.
Complete media, also referred to as “Prees” media, was prepared as follows. Dulbecco's Modified Eagle's Medium (DMEM) was supplemented with L-glutamine, penicillin-G and streptomycin (pen/strep), and heat-inactivated fetal bovine serum (FBS) (heat inactivated at […] for 30 minutes). Because serum can affect the growth, adherence, and differentiation of cells, any new lot of serum was first tested prior to use. Media was equilibrated in the incubator (5% CO2) until the pH was within the proper range (˜7), as indicated by the red/orange color of the indicator dye. If the media became pink (indicating a high pH), we discarded the media as basic conditions can affect cells and denature the insulin used in the differentiation medium-1 (DM1) and the differentiation medium-2 (DM2).
Differentiation media-1 (DM1) was prepared by supplementing DMEM with 10% FBS, L-glutamine, pen/strep, IBMX (375 μM), insulin (120 nM), and dexamethasone (188 nM). Differentiation media-2 (DM2) was prepared by supplementing DMEM with 10% FBS, L-glutamine, pen/strep, and insulin (120 nM).
Cell culture plates were gelatinized as follows. Gelatin (1% w/v in distilled water) was autoclaved and stored at room temperature. The bottom of each cell culture well was covered uniformly in the gelatin solution, ensuring that no bubbles were formed. This solution was removed leaving behind a thin film of gelatin. These plates were left to dry under the tissue culture hood. Plates were next washed with PBS, after which a 0.5% glutaric dialdehyde solution (glutaraldehyde in distilled water) was added to the cell culture wells. After ten minutes, wells were washed twice with DMEM containing pen-strep. Each washing step should last for approximately five minutes.
3T3-L1 pre-adipocyte cells were split approximately every 2-3 days or upon reaching a confluence of approximately 60%. Overconfluency may affect the ability of these cells to differentiate into adipocytes.
D-(+)-glucose (“cold” glucose, not radiolabeled) was added to DPBS mix to a final concentration of 10 mM.
Lysis buffer, a mixture of a base (e.g., sodium hydroxide at a final concentration of 0.5N) and a detergent (e.g., sodium dodecyl sulphate (SDS) diluted to a final concentration of 0.1% w/v) was freshly prepared each time (within one to two hours of use). Prior to use, lysis buffer was warmed up to a temperature exceeding that of room temperature for a period of approximately 30 minutes to avoid precipitation of the buffer.
Pre-adipocyte 3T3-L1 cells were plated at a density of approximately 5000 cells/well (in black NUNC 96 well plate). These cells were differentiated into adipocytes in two separate steps. Initially, cells were cultured in differentiation medium-1 (DM1) (day 1 of adipocyte differentation) for a period of two to three days. DM1 prevents proliferation and induces the expression of adipocyte-specific genes. Cells were next cultured in differentiation medium-2 (DM2) for 3 to 4 days, after which the culture media was replaced by fresh DM2. The glucose uptake assay was performed at day 9-15 of differentiation.
Two days prior to the experiment (at day 7-13 of differentiation), DM2 was removed and replaced with fresh Prees media. Candidate compounds were added at this time, allowing an incubation period of approximately 48 hours. On the day of the experiment, cells (now at day 9 to 15 of differentiation) were serum starved for three hours in DPBS, magnesium sulfate (0.8 mM), and Hepes (10 mM) at pH ˜7. After this incubation period, fresh DPBS containing insulin (10 nM) was added to the adipocytes. Fresh DPBS without any insulin were placed on cells that served as a negative control. […]

In the case of `CC(C)(Oc1ccc(CCNC(=O)c2ccc(Cl)cc2)cc1)C(=O)O` [Bezafibrate], the “average fold increase in insulin-stimulated glucose uptake compared to vehicle treated control” value is, setting by setting: (Bezafibrate 9 μM, Cinnamic acid 0 μM, average of three biological replicates) 0.94 fold; (Bezafibrate 9 μM, Diflunisal 0 μM, average of four biological replicates) 1.16 fold; (Bezafibrate 18 μM, Cinnamic acid 0 μM, average of three biological replicates) 1.21 fold; (Bezafibrate 18 μM, Diflunisal 0 μM, average of four biological replicates) 1.37 fold; (Bezafibrate 36 μM, Cinnamic acid 0 μM, average of three biological replicates) 1.15 fold; (Bezafibrate 36 μM, Diflunisal 0 μM, average of four biological replicates) 1.57 fold.
